In ChEMBL document CHEMBL2029284, “Synthesis and biological evaluation of ticagrelor derivatives as novel antiplatelet agents” (2012):
Active and inactive are the calls of the source. The rule behind the calls is not given here.

Test system: Rattus norvegicus
Assay: Antiplatelet activity in Sprague-Dawley rat assessed as ex-vivo inhibition of ADP-induced platelet aggregation at 5 mg/kg, po at 0.5 hrs by Born's method relative to vehicle-treated control
Format: functional

Row | SMILES | inhibition in vivo at 5 mg/kg [%] | inhibition
1 | CCCSc1nc(N[C@@H]2C[C@H]2c2ccc(F)c(F)c2)c2nnn([C@@H]3C[C@H](OC(=O)OCC)[C@@H](O)[C@H]3O)c2n1 | 42.5 | 
2 | CCCSc1nc(N[C@@H]2C[C@H]2c2ccc(F)c(F)c2)c2nnn([C@@H]3C[C@H](OCCOC(=O)C(C)(C)C)[C@@H](O)[C@H]3O)c2n1 | 46.1 | 
3 | CCCSc1nc(N[C@@H]2C[C@H]2c2ccc(F)c(F)c2)c2nnn([C@@H]3C[C@H](OCCOC(=O)c4ccccc4)[C@@H](O)[C@H]3O)c2n1 |  | inactive
4 | CCCSc1nc(N[C@@H]2C[C@H]2c2ccc(F)c(F)c2)c2nnn([C@@H]3C[C@H](OCCOC(=O)OCC)[C@@H](O)[C@H]3O)c2n1 | 47.7 | 
5 | CCCSc1nc(N[C@@H]2C[C@H]2c2ccc(F)c(F)c2)c2nnn([C@@H]3C[C@H](OC(=O)CC)[C@@H](O)[C@H]3O)c2n1 | 44.5 | 
6 | CCCSc1nc(N[C@@H]2C[C@H]2c2ccc(F)c(F)c2)c2nnn([C@@H]3C[C@H](OCCOC(=O)CCC)[C@@H](O)[C@H]3O)c2n1 |  | inactive
7 | CCCSc1nc(N[C@@H]2C[C@H]2c2ccc(F)c(F)c2)c2nnn([C@@H]3C[C@H](OCCO)[C@@H](O)[C@H]3O)c2n1 [TICAGRELOR] | 66.3 | 
8 | CCCSc1nc(N[C@@H]2C[C@H]2c2ccc(F)c(F)c2)c2nnn([C@@H]3C[C@H](O)[C@@H](O)[C@H]3O)c2n1 | 45.7 | 
9 | CCCSc1nc(N[C@@H]2C[C@H]2c2ccc(F)c(F)c2)c2nnn([C@@H]3C[C@H](OC(=O)c4ccccc4)[C@@H](O)[C@H]3O)c2n1 | 20.1 | 
10 | CCCSc1nc(N[C@@H]2C[C@H]2c2ccc(F)c(F)c2)c2nnn([C@@H]3C[C@H](OCCOC(=O)c4cccnc4)[C@@H](O)[C@H]3O)c2n1 |  | inactive
11 | CCCSc1nc(N[C@@H]2C[C@H]2c2ccc(F)c(F)c2)c2nnn([C@@H]3C[C@H](OC(=O)CCC)[C@@H](O)[C@H]3O)c2n1 | 28.5 | 
12 | CCCSc1nc(N[C@@H]2C[C@H]2c2ccc(F)c(F)c2)c2nnn([C@@H]3C[C@H](OC(=O)C(C)(C)C)[C@@H](O)[C@H]3O)c2n1 |  | inactive
13 | CCCSc1nc(N[C@@H]2C[C@H]2c2ccc(F)c(F)c2)c2nnn([C@@H]3C[C@H](OC(=O)OCC(C)C)[C@@H](O)[C@H]3O)c2n1 | 13.2 | 
